Measurements: US20230128688A1, “DIRECTED CONJUGATION TECHNOLOGIES” (KLEO PHARMACEUTICALS, INC., priority 2019, published 2023)
Starred links: 1 amine or outer side, 2 acyl side, 3 side chain; linkers in the order of their positions; H or OH if unused. Positions of bridges follow the written chain, without caps; N, C: chain ends. Non-standard residues stand in square brackets, D forms with d. Residues, ends and D or L forms follow the SMILES beside them. Groups on a side chain read outwards from the residue. *: point of attachment. X2 = O=C(CCOCCOCCOCCOCCOCCOCCNC(=S)Nc1ccc2c(c1)C(=O)OC21c2ccc(O)cc2Oc2cc(O)ccc21)Oc1c(F)cc(CN*)cc1F; FITC = O=C1OC2(c3ccc(O)cc3Oc3cc(O)ccc32)c2ccc(NC(=S)*)cc21; X6 = O=C([C@H](Cc1cccc(O[*:3])c1)N[*:1])[*:2]; PEG8 = NCCOCCOCCOCCOCCOCCOCCOCCOCCC(=O)O; PEG4 = NCCOCCOCCOCCOCCC(=O)O

Tests used:
Cetuximab = experiment: Absorbance based DAR analysis of FITC conjugation to antibody; type: biochemical; conditions: 2.5 M eq reagent, phosphate buffer saline pH 7.4, 4 h, 25 C; Drug = FITC
Procedure: (§1) In some embodiments, reaction partners, e.g., compounds of formula R-I or salts thereof ere dissolved in DMSO to 5 mM stock solution.
(§2) In some embodiments, reactions are set up with 300 micrograms of antibody. In some embodiments, various conditions, including various buffers, reagent equivalents, reaction time, reaction temperature and reaction concentrations can be utilized.
(§3) In some embodiments, a useful technology is absorbance based DAR analysis. DAR (ratio of moieties of interest and target agent moieties (e.g., antibody agent moieties) was calculated for various antibody conjugates, e.g., in various reagent screening/assessment methods. Various agents comprising target binding moieties were assessed for conjugation efficiency as reaction partners with targets, e.g. protein agents such as antibody agents, compared to reagents with the same reactive groups but without target binding moieties. In various ratio determination ‘Drug’/moiety of interest is fluorescein isothiocyanate (FITC) dye conjugated to target agents, e.g., antibody agents. DAR molar ratio is defined as a ratio of moles of drug/moiety of interest to moles of target agent/antibody. Molarity is calculated from absorbance of FITC (A485) and antibody (A280) of conjugated product, and extinction coefficients of FITC and antibody using Beer-Lambert law. Correction coefficient 0.35 was used to correct for absorbance of FITC at 280 nm. Biotek Synergy H1 microplate reader and Take3 microvolume plate were used for absorbance measurements. Concentration of antibody was at least 3 mg/mL for optimal signal-to-noise in the readings. Certain target binding moieties that can provide higher DAR compared to equivalent controls (absence of target binding moieties) were selected as hits for further analysis. Certain assessment data were provided below as examples.
Reactions were set up with antibodies using 2.5 M eq of indicated reagent in phosphate buffer saline pH 7.4 for 4 h at 25° C. DAR is Drug to antibody ratio, in this case “Drug” is FITC and DAR is measured using FITC absorbance.

daratumumab = experiment: as above; type: biochemical
Procedure: as §1, §2
As an example, one reaction is 300 microliter reaction with 1 mg/mL of antibody in PBS. Peptide I-45 (1 microliter of 5 mM stock in DMSO, 2.5 molar equivalents relative to daratumumab) was diluted in 284 microliters of PBS buffer (10 mM phosphate, 150 mM sodium chloride, pH 7.4), then 15 microliters of daratumumab (20 mg/mL stock) was added to the reaction mixture followed by incubation at room temperature in the dark. After 4 h reaction buffer was exchanged using Amicon Ultra centrifuge filter (30 KDa MWCO, 0.5 mL volume). First, glycine buffer (100 mM, pH 2.1) was used for buffer exchange to ensure dissociation of target binding moieties after reaction. Then, phosphate buffer saline (pH 7.4) was used for further buffer exchange and storage.
In another example, a reaction is 300 microliter reaction with 1 mg/mL of antibody in borate buffer. Peptide I-44 (1.2 microliter of 5 mM stock in DMSO, 3.0 molar equivalents relative to daratumumab) was diluted in 284 microliters of Borate buffer (100 mM borate, pH 8.3), then 15 microliters of daratumumab (20 mg/mL stock) was added to the reaction mixture followed by incubation at room temperature in the dark. After 20 h reaction buffer was exchanged using Amicon Ultra centrifuge filter (30 KDa MWCO, 0.5 mL volume). First, glycine buffer (100 mM, pH 2.1) was used for buffer exchange to ensure dissociation of target binding moieties after reaction. Then, phosphate buffer saline (10 mM phosphate, 150 mM sodium chloride, pH 7.4) was used for further buffer exchange and storage.
as §3

[1] = 2.5 M eq reagent, phosphate buffer saline pH 7.4, 4 h, 25 C, Drug = FITC
[2] = antibody 1 mg/mL, 2.5 M eq, 25 C, 20 h, PBS pH 7.4
[3] = antibody 1 mg/mL, 3 M eq, 25 C, 20 h, PBS pH 7.4
[4] = antibody 1 mg/mL, 3.5 M eq, 25 C, 20 h, PBS pH 7.4
[5] = antibody 4 mg/mL, 2.5 M eq, 25 C, 20 h, PBS pH 7.4
[6] = antibody 4 mg/mL, 3 M eq, 25 C, 20 h, PBS pH 7.4
[7] = antibody 4 mg/mL, 3.5 M eq, 25 C, 20 h, PBS pH 7.4
[8] = 2.5 M eq, 25 C, 4 h, PBS pH 7.4
[9] = 5 M eq reagent, phosphate buffer saline pH 7.4, 4 h, 25 C, Drug = FITC
[10] = 2.5 M eq, 25 C, 20 h, Borate pH 8.2
[11] = 2.5 M eq, 25 C, 20 h, PBS pH 7.4
[12] = 2.5 M eq, 25 C, 20 h, PBS pH 7.8
[13] = 2.5 M eq, 25 C, 20 h, PBS pH 8.0
[14] = 2.5 M eq, 25 C, 20 h, PBS pH 8.2
[15] = 2.5 M eq, 30 C, 20 h, PBS pH 7.4
[16] = 2.5 M eq, 37 C, 20 h, PBS pH 7.4

## CC(=O)NCc1cc(F)c(OC(=O)CCOCCOCCOCCOCCOCCOCCNC(=S)Nc2ccc3c(c2)C(=O)OC32c3ccc(O)cc3Oc3cc(O)ccc32)c(F)c1 [Compound I-9]
Cetuximab
  DAR Cetuximab: 0.03
daratumumab; [1]
  DAR: 0.06
  DAR Daratumumab: 0.06
daratumumab; 10 M eq reagent, Bicarbonate buffer pH 8.3, 2 h, 37 C, Drug = FITC
  DAR: 1.10
daratumumab; [2]
  DAR: 0.19
daratumumab; [3]
  DAR: 0.18
daratumumab; [4]
  DAR: 0.24
daratumumab; [5]
  DAR: 0.37
daratumumab; [6]
  DAR: 0.49
daratumumab; [7]
  DAR: 0.44

## CCNC(=O)c1ccc(OC(=O)CCOCCOCCOCCOCCOCCOCCNC(=S)Nc2ccc3c(c2)C(=O)OC32c3ccc(O)cc3Oc3cc(O)ccc32)c(F)c1 [Compound I-18]
Cetuximab
  DAR Cetuximab: 0.04
daratumumab; [1]
  DAR: 0.05
  DAR Daratumumab: 0.05
daratumumab; 2.5 M eq, 25 C, 4 h, Acetate pH 6.2
  DAR: 0.08
daratumumab; 2.5 M eq, 25 C, 4 h, Borate pH 8.3
  DAR: 0.35
daratumumab; [8]
  DAR: 0.05
daratumumab; [9]
  DAR: 0.15
daratumumab; 5 M eq, 25 C, 4 h, Acetate pH 6.2
  DAR: 0.14
daratumumab; 5 M eq, 25 C, 4 h, Borate pH 8.3
  DAR: 0.42
daratumumab; 5 M eq, 25 C, 4 h, PBS pH 7.4
  DAR: 0.08
daratumumab; 10 M eq, 25 C, 2 h, Acetate pH 6.2
  DAR: 0.12
daratumumab; 10 M eq, 25 C, 4 h, Borate pH 8.3
  DAR: 0.77
daratumumab; 10 M eq, 25 C, 4 h, PBS pH 7.4
  DAR: 0.15

## CC(=O)N[C@@H](CC(=O)O)C(=O)N[C@H]1CSSC[C@@H](C(=O)N[C@H](C(=O)O)[C@@H](C)O)NC(=O)[C@H](Cc2c[nH]c3ccccc23)NC(=O)[C@H](C(C)C)NC(=O)[C@H](CC(C)C)NC(=O)[C@H](CCC(=O)O)NC(=O)CNC(=O)[C@H](CC(C)C)NC(=O)[C@H](CC(=O)NCc2ccc(OC(=O)CCOCCOCCOCCOCCOCCOCCNC(=S)Nc3ccc4c(c3)C(=O)OC43c4ccc(O)cc4Oc4cc(O)ccc43)cc2)NC(=O)[C@H](Cc2c[nH]c3ccccc23)NC(=O)[C@H](C)NC1=O [Compound I-43]
daratumumab; [1]
  DAR: 0.26

## CC(=O)N[C@@H](CC(=O)O)C(=O)N[C@H]1CSSC[C@@H](C(=O)N[C@H](C(=O)O)[C@@H](C)O)NC(=O)[C@H](Cc2c[nH]c3ccccc23)NC(=O)[C@H](C(C)C)NC(=O)[C@H](CC(C)C)NC(=O)[C@H](CCC(=O)O)NC(=O)CNC(=O)[C@H](CC(C)C)NC(=O)[C@H](CC(=O)NCc2ccc(OC(=O)CCOCCOCCOCCOCCOCCOCCOCCOCCNC(=S)Nc3ccc4c(c3)C(=O)OC43c4ccc(O)cc4Oc4cc(O)ccc43)c(F)c2)NC(=O)[C@H](Cc2c[nH]c3ccccc23)NC(=O)[C@H](C)NC1=O [Compound I-44]
daratumumab; [1]
  DAR: 0.59
daratumumab; [8]
  DAR: 0.59
  Fold (DAR I-44 over I-10): 7.79
daratumumab; [10]
  DAR: 1.42
  Fold (DAR I-44 over I-10): 6.83
daratumumab; [11]
  DAR: 1.09
  Fold (DAR I-44 over I-10): 16.08
daratumumab; [12]
  DAR: 1.00
  Fold (DAR I-44 over I-10): 6.58
daratumumab; [13]
  DAR: 0.99
  Fold (DAR I-44 over I-10): 15.39
daratumumab; [14]
  DAR: 1.14
  Fold (DAR I-44 over I-10): 36.42
daratumumab; [15]
  DAR: 1.15
  Fold (DAR I-44 over I-10): 21.43
daratumumab; [16]
  DAR: 1.66
  Fold (DAR I-44 over I-10): 9.77
daratumumab; FIG. 16 (e): Borate buffer pH 8.2, 25 C, 20 h, 2.5 M eq
  FITC DAR: 0.21

## CC(=O)NCC(=O)N[C@@H](CO)C(=O)N[C@@H](Cc1ccc(O)cc1)C(=O)N[C@@H](Cc1c[nH]c2ccccc12)C(=O)N[C@@H](Cc1ccc(O)cc1)C(=O)N[C@@H](CC(=O)O)C(=O)N[C@H](C(=O)N[C@@H](Cc1c[nH]c2ccccc12)C(=O)N[C@@H](Cc1ccccc1)C(=O)NCCOCCOCCOCCOCCC(=O)NCc1cc(F)c(OC(=O)CCOCCOCCOCCOCCOCCOCCNC(=S)Nc2ccc3c(c2)C(=O)OC32c3ccc(O)cc3Oc3cc(O)ccc32)c(F)c1)C(C)C [Compound I-45] (Ac-GSYWYDVWF[PEG4]-X2)
Cetuximab
  DAR Cetuximab: 0.70
daratumumab; [1]
  DAR: 0.64
  DAR Daratumumab: 0.64
daratumumab; [2]
  DAR: 0.90
  Fold (DAR I-45 over I-9): 4.78
daratumumab; [3]
  DAR: 0.96
  Fold (DAR I-45 over I-9): 5.31
daratumumab; [4]
  DAR: 1.06
  Fold (DAR I-45 over I-9): 4.39
daratumumab; [5]
  DAR: 1.04
  Fold (DAR I-45 over I-9): 2.81
daratumumab; [6]
  DAR: 1.09
  Fold (DAR I-45 over I-9): 2.23
daratumumab; [7]
  DAR: 1.06
  Fold (DAR I-45 over I-9): 2.40
daratumumab; sample (a) of FIG. 12 / FIG. 13
  FITC DAR: 0.43

## CC(=O)N[C@@H](CC(=O)O)C(=O)N[C@H]1CSSC[C@@H](C(=O)N[C@H](C(=O)O)C(C)C)NC(=O)[C@H](Cc2c[nH]c3ccccc23)NC(=O)[C@H](C(C)C)NC(=O)[C@H](CC(C)C)NC(=O)[C@H](CCC(=O)O)NC(=O)CNC(=O)[C@H](CC(C)C)NC(=O)[C@H](Cc2cccc(OC(=O)CCOCCOCCOCCOCCOCCOCCOCCOCCNC(=S)Nc3ccc4c(c3)C(=O)OC43c4ccc(O)cc4Oc4cc(O)ccc43)c2)NC(=O)[C@H](Cc2c[nH]c3ccccc23)NC(=O)[C@H](C)NC1=O [Compound I-46] (Ac-DCAW[X6]([PEG8-FITC])LGELVWCV-OH; disulfide 2-12)
daratumumab; [9]
  DAR: 0.15
daratumumab; 30 M eq reagent, borate buffer pH 8.3, 20 h, 37 C, Drug = FITC
  DAR: 0.43
